Test results taken from ChEMBL document CHEMBL1201862, “PubChem BioAssay data set” (2004).
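How tested: cells in 96-well plates exposed to compound for 48 hours at five concentrations. The concentration for 50% growth inhibition is given as GI50.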 The source made the active and inactive calls. Cut-off read from the data, not from the text of the source: active = GI50 up to about 1.1 µM and inactive = higher. Where a SMILES comes first, the peptide text is derived from it. The star is where a group is joined. X33 = O=C(c1ccc(-c2ccc(Cl)cc2Cl)o1)*

How the values were obtained:
Assay in all cases: NCI tumour cell line growth inhibition, 48 h
ACHN = tested on: ACHN
HCT-116 = tested on: HCT-116
HL-60 = tested on: HL-60
HOP-62 = tested on: HOP-62
HT-29 = tested on: HT-29
Hs-578T = tested on: Hs-578T
LOX IMVI = tested on: LOX IMVI
MCF7 = tested on: MCF7
MOLT-4 = tested on: MOLT-4
Malme-3M = tested on: Malme-3M
NCI-H23 = tested on: NCI-H23
OVCAR-3 = tested on: OVCAR-3
PC-3 = tested on: PC-3
RPMI-8226 = tested on: RPMI-8226
RXF 393 = tested on: RXF 393
SNB-75 = tested on: SNB-75
T47D = tested on: T47D
U-251 = tested on: U-251
UACC-62 = tested on: UACC-62
DMS-114 = tested on: DMS-114

Measured: GI50

Cc1ccc(/N=N/c2c(C)nn(C(=O)CC(=O)Nc3ccccc3)c2C)cc1C
inactive: ACHN > 100 µM | HCT-116 > 100 µM | HL-60 > 100 µM | HOP-62 > 100 µM | HT-29 > 100 µM | Hs-578T > 100 µM | LOX IMVI > 100 µM | MCF7 > 100 µM | MOLT-4 > 100 µM | Malme-3M > 100 µM | NCI-H23 > 100 µM | OVCAR-3 > 100 µM | PC-3 > 100 µM | RPMI-8226 > 100 µM | RXF 393 > 100 µM | SNB-75 59.7 µM | T47D > 100 µM | U-251 > 100 µM | UACC-62 > 100 µM

CN/C(=N/C#N)NCc1ccccc1
inactive: ACHN > 100 µM | DMS-114 > 100 µM | HCT-116 > 100 µM | HL-60 > 100 µM | HOP-62 > 100 µM | HT-29 > 100 µM | LOX IMVI > 100 µM | MOLT-4 > 100 µM | Malme-3M > 100 µM | NCI-H23 > 100 µM | OVCAR-3 > 100 µM | RPMI-8226 > 100 µM | SNB-75 > 100 µM | U-251 > 100 µM

CCOC(=O)C1(Cc2ccc(C)cc2)Cc2ccc(C)cc2C1=O (centres undefined)
inactive: ACHN 41.7 µM | HCT-116 6.73 µM | HL-60 2.55 µM | HOP-62 21.1 µM | HT-29 5.43 µM | Hs-578T 16.3 µM | LOX IMVI 12.4 µM | MCF7 6.52 µM | MOLT-4 4.23 µM | Malme-3M 16.4 µM | NCI-H23 18.5 µM | OVCAR-3 18.5 µM | PC-3 26 µM | RPMI-8226 12.2 µM | RXF 393 4.6 µM | SNB-75 24.3 µM | T47D 12.4 µM | U-251 10 µM | UACC-62 11.8 µM

Cc1cc(S(=O)(=O)Nc2nc(Nc3ccc4ccccc4c3)n[nH]2)c(S)cc1Cl
inactive: ACHN 84.9 µM | HCT-116 41.5 µM | HL-60 > 100 µM | HOP-62 28.1 µM | HT-29 > 100 µM | Hs-578T 22.2 µM | LOX IMVI 45.6 µM | MCF7 74.8 µM | MOLT-4 > 100 µM | Malme-3M 89.7 µM | NCI-H23 43 µM | OVCAR-3 23.2 µM | PC-3 33.6 µM | RPMI-8226 > 100 µM | RXF 393 75.2 µM | SNB-75 43.3 µM | T47D 63.7 µM | U-251 39.9 µM | UACC-62 66.4 µM

CCOC(=O)C[n+]1cccc(C2(c3cc4ccccc4[nH]3)OCCO2)c1
inactive: ACHN > 100 µM | HCT-116 > 100 µM | HL-60 > 100 µM | HOP-62 > 100 µM | HT-29 > 100 µM | Hs-578T > 100 µM | LOX IMVI > 100 µM | MCF7 > 100 µM | MOLT-4 > 100 µM | Malme-3M > 100 µM | NCI-H23 > 100 µM | OVCAR-3 > 100 µM | PC-3 > 100 µM | RPMI-8226 > 100 µM | RXF 393 > 100 µM | SNB-75 > 100 µM | T47D > 100 µM | U-251 > 100 µM | UACC-62 > 100 µM

COC(=O)/C=C(\S/C(=C(/c1ccccc1)n1cc(C(=O)OC)c(C(=O)OC)n1)c1ccccc1)C(=O)OC
inactive: ACHN 3.29 µM | HCT-116 12.1 µM | HL-60 3.26 µM | HOP-62 16 µM | HT-29 3.33 µM | Hs-578T 33.3 µM | LOX IMVI 8.17 µM | MCF7 5.26 µM | MOLT-4 2.31 µM | Malme-3M 14.8 µM | NCI-H23 18.1 µM | OVCAR-3 3.27 µM | PC-3 16.4 µM | RPMI-8226 1.95 µM | RXF 393 13.6 µM | SNB-75 29.1 µM | T47D 3.27 µM | U-251 23.2 µM | UACC-62 30.5 µM

CN(CCN(C)Cc1ccc(Cl)c(Cl)c1)CCN1CCCC1
inactive: ACHN > 43.3 µM | HCT-116 13.1 µM | HL-60 17.5 µM | HOP-62 22.1 µM | HT-29 6.32 µM | Hs-578T 9.04 µM | LOX IMVI 13.4 µM | MCF7 28.4 µM | MOLT-4 9.33 µM | Malme-3M 19.7 µM | NCI-H23 42.1 µM | OVCAR-3 > 75.7 µM | PC-3 32.5 µM | RPMI-8226 7.71 µM | RXF 393 18.5 µM | SNB-75 26 µM | T47D 57.9 µM | U-251 21.3 µM | UACC-62 2.79 µM

Cc1cc(=O)oc2c(CNC(C)C(=O)O)c(O)ccc12 (centres undefined)
inactive: ACHN > 100 µM | HCT-116 71.4 µM | HL-60 > 100 µM | HOP-62 > 100 µM | HT-29 > 100 µM | Hs-578T > 100 µM | LOX IMVI > 100 µM | MCF7 > 100 µM | MOLT-4 > 100 µM | Malme-3M > 100 µM | NCI-H23 > 100 µM | OVCAR-3 > 100 µM | PC-3 > 100 µM | RPMI-8226 > 100 µM | RXF 393 > 100 µM | SNB-75 > 100 µM | T47D > 100 µM | U-251 > 100 µM | UACC-62 > 100 µM

O=[N+]([O-])c1c(Br)cc(Br)c2c1Nc1c(ccc(Cl)c1Cl)S2
inactive: ACHN 16.8 µM | HCT-116 6.37 µM | HL-60 2.85 µM | HOP-62 18.8 µM | HT-29 11.7 µM | Hs-578T 25.1 µM | LOX IMVI 2.34 µM | MCF7 2.87 µM | MOLT-4 3.06 µM | Malme-3M 13.4 µM | NCI-H23 14.4 µM | OVCAR-3 4.8 µM | PC-3 17.7 µM | RPMI-8226 14.4 µM | RXF 393 19.6 µM | SNB-75 36.5 µM | T47D 1.61 µM | U-251 17.9 µM | UACC-62 16 µM

CCOC(=O)C1=C(C)C(C(=O)OC)/C(=C/c2cccc3cccnc23)C1=O (centres undefined)
inactive: ACHN > 10 µM | HCT-116 > 10 µM | HL-60 9.82 µM | HOP-62 > 10 µM | HT-29 > 10 µM | Hs-578T > 10 µM | LOX IMVI > 10 µM | MCF7 4.76 µM | MOLT-4 > 10 µM | Malme-3M > 10 µM | NCI-H23 > 10 µM | OVCAR-3 > 10 µM | PC-3 > 10 µM | RPMI-8226 > 10 µM | RXF 393 > 10 µM | SNB-75 > 10 µM | T47D > 10 µM | U-251 > 10 µM | UACC-62 > 10 µM

CCC(C)C(NC(=O)CNC(=O)C(Cc1ccccc1)NC(=O)C1CCCN1C(=O)c1ccc(-c2ccc(Cl)cc2Cl)o1)C(=O)OC (centres undefined) (X33-PFGI-OMe; configuration not given here)
inactive: ACHN 33.8 µM | HCT-116 13.6 µM | HL-60 3.47 µM | HOP-62 31.1 µM | HT-29 15 µM | Hs-578T 50.2 µM | LOX IMVI 33.3 µM | MCF7 20.8 µM | MOLT-4 10.6 µM | Malme-3M 53.7 µM | NCI-H23 34.1 µM | OVCAR-3 23.5 µM | PC-3 8 µM | RPMI-8226 14.7 µM | RXF 393 19.4 µM | SNB-75 23.6 µM | T47D 25.3 µM | U-251 24.5 µM | UACC-62 25.2 µM
